Assay [1] relates to yeast. Put plainly: Corn mash fermentation with synthetic antioxidants, 24 hours at 33° C. then heat stress at 37° C. to 72 hours, ethanol by HPLC (Example 6). Conditions: for increase in ethanol content at 24 hour compared to control: before heat stress. It counts as cell-based. An excerpt:
(§1) Lutein (FloraGLO®): Lutein crystals were purified from marigolds and suspended in oil. Acerola extract (Fortium® A): Acerola fruit grown from Malpighia emarginata, water extract. Spearmint Extract (Neumentix®): Spearmint leaves grown from Mentha spicata L. (Kemin Industries, Inc. proprietary lines KI-MsEM0042, KI-MsEM0110), water extract. Aqueous Tea Extract (AssuriTEA® Green): Tea leaves grown from Camellia sinensis, water extract. Solvent Extracted Tea (Fortium® GT107): Tea leaves grown from Camellia sinensis and extracted with acetone and ethyl acetate, solvent extract. Rosemary Extract (Fortium® M): Rosemary leaves grown from Rosmarinus officinalis extracted with either acetone and TFE or ethanol. Mixed Tocopherols (Fortium® MT): Mixed tocopherols are extracted from vegetable oils with hexane, ethanol, and methanol. Lipid-Soluble Green Tea (GT-FORT): Tea leaves grown from Camellia sinensis and extracted with ethyl acetate, dichloromethane, and ethanol. Synthetic antioxidants: TBHQ (tert-butylhydroquinone) and BHT (butylated hydroxytoluene); tert-butlyhydroquinone was solubilized in propylene glycol and butylated hydroxytoluene was solubilized in ethanol. In alternative embodiments, the synthetic antioxidants are suspended in liquid or solubilized in liquid, including but not limited to water and organic solvents or combinations thereof.
Dry yeast was added to corn mash containing urea, protease, phytase, and glucoamylase. tert-Butylhydroquinone (0.0001, 0.001, or 0.01 mg/L) and butylated hydroxytoluene (0.0001, 0.001, or 0.01 mg/L were added to the corn mash. Corn mash containing no antioxidants was included in the experiment as a Control. The corn mash was fermented in a temperature-controlled incubator shaker for 24 hours at 33° C. Following 24 hours, the yeast in the corn mash were subjected to heat stress by increasing the temperature to 37° C. and the corn mash fermented for another 48 hours for a total fermentation time of 72 hours. Ethanol levels were measured by HPLC.

Assay [2] relates to yeast. Put plainly: Corn mash fermentation, 48 hours, heat stress at 38° C. after 24 hours, ethanol by HPLC (Example 1). Conditions: 48 hours total, heat stress 38° C. for last 24 hours. It counts as cell-based.
Source text: as §1
Dry yeast was added to corn mash containing urea, protease, phytase, and glucoamylase. Lutein, a fat-soluble antioxidant, was added to the mash at 200, 1,000, or 2,000 mg/L. Dried aqueous tea extract or spearmint extract containing antioxidants were added to the corn mash at 100, 1,000, or 5,000 mg/L. Corn mash containing no added antioxidants was included in the experiment as a control group (Control). The corn mash was fermented in a temperature-controlled incubator shaker for 24 hours at 33° C. Following 24 hours, the yeast in the corn mash were subjected to heat stress by increasing the temperature to 38° C. and the corn mash fermented for another 24 hours for a total fermentation time of 48 hours. Ethanol levels were measured by HPLC.

Take `Cc1cc(C(C)(C)C)c(O)c(C(C)(C)C)c1` [butylated hydroxytoluene]: the “change of ethanol content of corn mash through 72 hours compared to control” value with yeast [1] (72 hours, following heat stress 37° C., 0.0001, 0.001 or 0.01 mg/L) was “slightly decreased”.

On to `CC1=C[C@H](O)CC(C)(C)[C@H]1/C=C/C(C)=C/C=C/C(C)=C/C=C/C=C(C)/C=C/C=C(C)/C=C/C1=C(C)C[C@@H](O)CC1(C)C` [lutein, Lutein], for which the “increase in ethanol content of corn mash compared to Control” value stood at 4% with yeast [2] (200 mg/L), 7% with yeast [2] (1,000 mg/L) and 10% in the assay on yeast [2] (2,000 mg/L).

As to `CC(C)(C)c1cc(O)ccc1O` [tert-Butylhydroquinone, tert-butylhydroquinone], the “increase in ethanol content at 24 hour compared to control” value in the assay with yeast [1] (0.0001 mg/L, first 24 hours at 33° C.) is given as “up to 0.4%”; in the assay with yeast [1] (0.01 mg/L, first 24 hours at 33° C.), “up to 1.8%”. For the same compound, the “increase in ethanol content at 72 hour compared to control” value with yeast [1] (72 hours, following heat stress 37° C., highest increase among 0.0001, 0.001 or 0.01 mg/L) is listed as not above 2.8%. Also, the “change of ethanol content of corn mash over the first 24 hours compared to control” value in the assay with yeast [1] (first 24 hours at 33° C., FIG. 17, 0.0001, 0.001 or 0.01 mg/L) is “decreased”.

Source of the values: patent US20230127442A1, “COMPOSITIONS FOR INCREASING ETHANOL PRODUCTION AND RELATED METHODS” (KEMIN INDUSTRIES, INC., priority 2021, published 2023).
